Test results from article PMC6745035, “Novel tetrahydroacridine derivatives with iodobenzoic moieties induce G0/G1 cell cycle arrest and apoptosis in A549 non-small lung cancer and HT-29 colorectal cancer cells” (Molecular and Cellular Biochemistry, 2019).

Key:
A549 cells [1] = test: MTT cytotoxicity assay, A549; assay type: cell-based, human; settings: Homo sapiens, A549; MTT, 24 h incubation; read-out: IC50 µM ± SD against A549
From the text: A549 cell line (lung carcinoma from human) (European Collection of Cell Culture) and HT-29 cell line (colorectal adenocarcinoma from human) (American Type Culture Collection) were chosen to evaluate the cytotoxicity of novel compounds.
(§1) The MTT assay was used to evaluate cell metabolic activity. The test principle is based on the determination of cell viability by measuring the metabolic activity in mitochondria. Enzymatically active mitochondria reduce the water-soluble MTT (3-(4,5-dimethylthiazol-2-yl)-2,5 diphenyltetrazoliumbromide) to blue–violet insoluble formazan. The number of viability cells is proportional to the colour intensity determined by photometric measurements (an analytical wavelength 570 nm) after dissolving the formazan in Dimethylsulfoxide (DMSO) (Serva) and Sorensen’s glycine buffer. MTT (Sigma Aldrich) was dissolved in Phosphate Buffered Saline (PBS) (PAN-Biotech) at a concentration of 0.5 mg/mL. Sorensen’s glycine buffer is made of 0.1 M glycine and 0.1 M NaCl, at pH 10.5. Studied compounds were dissolved in DMSO in order to receive stock solutions.
(§2) For the assay, cells were seeded into 96-well plates at density 10^4 cells per well and cultured for 24 h at 37 °C and 5% CO2. Then medium was removed, and cells were exposed to the 100 µL of the compound solutions over a range of concentrations (final DMSO concentration was below 0.2%) or nothing but culture medium (blank control). Pure DMSO was used as a positive control. After 24 h of incubation with the compound solutions, medium was removed and 50 µL of the MTT solution was added to each well and incubated in the dark for additional 2 h at 37 °C. Then the MTT solution was carefully removed and 100 µL of DMSO was added. Plates were incubated for 10 min at room temperature. Finally, 5 µL of Sorensen Buffer was added to each well. Plate was swayed, and the absorbance was measured by using microplate reader (Synergy H1, BioTek, Winooski, VT, USA) at a wavelength of 570 nm. The cell viability was expressed as a percentage of the control values (blank). The experiments were done in triplicate.

HT-29 cells [2] = test: MTT cytotoxicity assay, HT-29; assay type: cell-based; settings: Homo sapiens, HT-29; MTT, 24 h incubation; read-out: IC50 µM ± SD against HT-29
From the text: as §1, §2

EA.hy926 cells = test: MTT cytotoxicity assay, EA.hy926; assay type: cell-based, human; settings: Homo sapiens, EA.hy 926; MTT, 24 h incubation; read-out: IC50 µM ± SD against EA.hy926
From the text: The EA.hy926 cells (the human umbilical vein, somatic cell hybrid) (American Type Culture Collection) are immortalized human umbilical vein endothelial cells. They have morphological, phenotypic and functional characteristics of human endothelial cells, without the limited lifespan. This cell line has been considered as a good model for anticancer drug screening and was chosen to evaluate the endothelial cytotoxicity of novel compounds.
as §1, §2

A549 cells [3] = test: Colony forming assay, A549; assay type: cell-based, human
From the text: The plates were placed on ice.

γ-H2AX [4] = test: Western blot of γ-H2AX, A549; assay type: cell-based, human; settings: A549, 24 h, IC50 and 1/2IC50
Procedure: (§3) Then, cells were treated with chosen compounds. After 24 h of incubation, monolayer and supernatant were harvested and washed in cold PBS. Cells were centrifuged—monolayer at 1200 rpm for 10 min, supernatant 3500 rpm for 10 min. Pellets were dissolved in RIPA Lysis and Extraction buffer (Bio-Rad) containing Phosphatase Inhibitor Cocktail 3 (Sigma Aldrich) and Protease Inhibitor Cocktail (Sigma Aldrich). Samples were incubated in ice for 30 min and mixed every 10 min. Then, samples were centrifuged at 12,000 rpm for 25 min. Protein concentration in supernatants was measured in triplicate using a Protein Assay (Bio-Rad). Proteins were separated by SDS–polyacrylamide gel electrophoresis. Separating and stacking gels were made of different ratios of water, Tris–HCl pH 6.8 and pH 8.8, 10% SDS (Sigma Aldrich), Acrylamide/bis-acrylamide (Sigma Aldrich), 10% APS (Sigma Aldrich), TEMED (Sigma Aldrich). 7.5% gels were prepared for analysis PARP-1, whereas 12% gels prepared for γ-H2AX. After separation on SDS–polyacrylamide gels, proteins were electroblotted on nitrocellulose membrane in Transfer Buffer (Glycine, Tris, Methanol). Membranes were washed in TBS/0.1% or 0.05% Tween20 solution and blocked in Tris-buffered saline with 5% of non-fated dried milk for 1 h. Membranes were then incubated overnight with primary antibodies—anti-PARP-1 (Cell Signaling Technology), anti-γ-H2A.X (Cell Signaling Technology), anti-β-actin (Cell Signaling Technology) in cold room (6 °C). After incubation, membranes well washed with TBS/Tween solution and blocked with and horseradish peroxidase-conjugated secondary antibodies (Bio-Rad) for 1 h in cold room. Protein bands were visualized using ECL™ Prime Western Blotting Detection Reagents (Sigma Aldrich) Healthcare and Carestream Kodak autoradiography GBX fixer/replenisher (Sigma Aldrich) with Developer and Replenisher (Carestream) in the dark room. Results were obtained on Autoradiography Film (Santa Cruz Biotechnology). Densitometric analysis was performed by using a software program (ImageJ). […]

A549 cells [5] = test: Reactive oxygen species assay (DCFH-DA), A549; assay type: cell-based, human; settings: compound at IC50 24 h plus H2O2, H2O2 only 1.86-fold
Procedure: After incubation, compounds were added into the wells and further incubated for next 24 h. H2O2 (1 mM) was added at 22nd h of incubation with compounds. H2O2 was used as a positive control. 30 min before the analysis, DCFH-DA (20 µM) was added to the wells. After incubation, cells were harvested and washed in PBS. Then, cells were centrifuged at 1500 rpm for 10 min. Medium was removed and cells were suspended in PBS. Analysis was performed on BD Accuri C6 Flow Cytometry (Becton–Dickinson).

SH-SY5Y cells = test: Cytoprotection against H2O2 (100 µM), MTT; settings: for Cells viability (%) ± SD after 24 h of incubation with compound and H2O2: H2O2 100 µM, H2O2 only 82.74%
HT-29 cells [6] = test: Apoptosis assay by annexin-V/PI double staining, HT-29; assay type: cell-based, human; settings: HT-29, 24 h, compound at IC50 (1i 5.90 µM); control 8.62%
Procedure: Compounds were added to the cells and further incubated for 24 h. After treatment, monolayer and supernatant cells were harvested, washed with PBS and centrifuged (monolayer at 1200 rpm for 10 min, supernatant at 3500 rpm for 10 min). Then, cells were re-suspended in binding buffer and stained with 2 µL of Annexin-V and […] of PI (ANNEXIN-V—FITC Apoptosis Detection Kit, Immunostep) in the dark for 10 min at room temperature. Cells were analysed by BD Accuri C6 Flow Cytometry (Becton–Dickinson). Etoposide (Calbiochem) was used as a reference drug. Experiments were done in triplicates.

γ-H2AX [7] = test: Western blot of γ-H2AX, HT-29; assay type: cell-based, human; settings: HT-29, 24 h, IC50 and 1/2IC50
Procedure: as §3

[8] = Homo sapiens, 24 h, read-out: Cells viability (%) ± SD after 24 h of incubation with compound and H2O2

Compound: O=C(NCCCNc1c2c(nc3ccccc13)CCCC2)c1ccccc1I [Compound 1b]
- IC50 (A549 cells [1]): 32.5 ± 2.25 µM
- IC50 (HT-29 cells [2]): 16.1 ± 1.55 µM
- IC50 (EA.hy926 cells): 22.4 ± 2.3 µM
- Number of colonies expressed as percent of control number (A549 cells [3]; compound at 2xIC50): 3.55%
- γ-H2AX protein level / DNA damage (in words) (γ-H2AX [4]): slightly lower
- Increase in ROS level (DCF fluorescence) in comparison with non-treated control (A549 cells [5]): 1.98 fold
- Cells viability (%) ± SD after 24 h of incubation with compound and H2O2 (SH-SY5Y cells; concentration: 1b 16.26, 1c 6.79, 1e 11.75, 1f 4.26, 1i 5.90 µM): 64.61 ± 4.88 %
- Cells viability (%) ± SD after 24 h of incubation with compound and H2O2 (SH-SY5Y cells; concentration: 1b 65.04, 1c 27.16, 1e 46.98, 1f 17.04, 1i 29.74 µM): 17.21 ± 1.18 %
- viability at 1 µM (SH-SY5Y cells; [8]): 99.2 ± 1.67%

Compound: O=C(NCCCNc1c2c(nc3ccccc13)CCCC2)c1cccc(I)c1 [Compound 1e]
- IC50 (A549 cells [1]): 23.5 ± 2.6 µM
- IC50 (HT-29 cells [2]): 11 ± 0.59 µM
- IC50 (EA.hy926 cells): 11.7 ± 0.62 µM
- γ-H2AX protein level / DNA damage (in words) (γ-H2AX [4]): strongest effect
- Increase in ROS level (DCF fluorescence) in comparison with non-treated control (A549 cells [5]): 1.98 fold
- viability at 1 µM (SH-SY5Y cells; [8]): 89.8 ± 8.55%

Compound: O=C(NCCCCNc1c2c(nc3ccccc13)CCCC2)c1ccccc1I [Compound 1c]
- IC50 (A549 cells [1]): 59.1 ± 5.86 µM
- IC50 (HT-29 cells [2]): 13.6 ± 1.39 µM
- IC50 (EA.hy926 cells): 14.3 ± 1.65 µM
- Total apoptotic cells (HT-29 cells [6]): 12.96%
- γ-H2AX protein level / DNA damage (in words) (γ-H2AX [7]): lowest effect on DNA damage
- viability at 1 µM (SH-SY5Y cells; [8]): 101 ± 1.19%

Compound: O=C(NCCCCNc1c2c(nc3ccccc13)CCCC2)c1ccc(I)cc1 [Compound 1i]
- IC50 (A549 cells [1]): 14.9 ± 1.06 µM
- IC50 (HT-29 cells [2]): 5.9 ± 0.42 µM
- IC50 (EA.hy926 cells): 11.3 ± 0.89 µM
- Number of colonies expressed as percent of control number (A549 cells [3]; compound at 1/2IC50): 39.47%
- Number of colonies expressed as percent of control number (A549 cells [3]; compound at 2xIC50): 0%
- Number of colonies expressed as percent of control number (A549 cells [3]; compound at IC50): 4.70%
- Total apoptotic cells (HT-29 cells [6]): 11.80%
- γ-H2AX protein level / DNA damage (in words) (γ-H2AX [4]): higher ability to damage DNA at 1/2IC50 concentration (7.44 µM) than at IC50 concentration (14.87 µM)
- γ-H2AX protein level / DNA damage (in words) (γ-H2AX [7]): strongest H2AX phosphorylation
- Increase in ROS level (DCF fluorescence) in comparison with non-treated control (A549 cells [5]): 1.98 fold
- Neuroprotection against H2O2 (in words) (SH-SY5Y cells; H2O2 100 µM, 29.74, 14.87, 5.90 and 1 µM): neuroprotection was not observed at any dose
- viability at 1 µM (SH-SY5Y cells; [8]): 29.7 ± 3.39%
- viability at 5.9 µM (SH-SY5Y cells; [8]): 25.9 ± 1.24%
- viability at 14.87 µM (SH-SY5Y cells; [8]): 20.7 ± 1.45%
- viability at 29.74 µM (SH-SY5Y cells; [8]): 18.7 ± 1.25%
